{"source": "paper PMC10526274", "about": "“Epithelial-Immune Cell Crosstalk Determines the Activation of Immune Cells In Vitro by the Human Cathelicidin LL-37 at Low Physiological Concentrations” (Biomolecules, 2023)", "test_system": "Caco-2 cells", "experiment": "Multiplex xMAP cytokine levels, Caco-2 epithelial barrier alone stimulated with LL-37", "format": "cell-based, human", "conditions": "Caco-2 alone, 1 µM LL-37, 24 h, n=2", "procedure": "Caco-2 cell line (ATCC HTB-37) was cultured in a humidified CO2-incubator (5% CO2, 37 °C) in the complete DMEM/F12 (1:1) medium (Gibco, Waltham, MA, USA) containing 10% fetal bovine serum (FBS, Gibco) and 1X antibiotic–antimycotic solution (Gibco). To stabilize the cell phenotype, Caco-2 cells have been subcultivated three times before seeding on the filter supports. Then, Caco-2 cells were seeded at a density of 2 × 10^5 cells/cm^2 onto 24-well Millicell cell culture inserts (PC, 0.4-μm pore size, 0.6 cm^2 surface area, cat. #PIHP01250) (Millipore, Burlington, MA, USA), precoated with 0.2% bovine gelatin (Sigma-Aldrich, Saint Louis, MO, USA). After seeding, Caco-2 cells were grown in the same complete medium with re-feeding every 2–3 days until polarization of the monolayer occurred. The functional polarity of the monolayers was developed when transepithelial electrical resistance (TEER) between the apical and basolateral surfaces of the monolayers reached […] as measured by the electrical resistance system Millicell-ERS Voltohmmeter (Millipore, Burlington, MA, USA). Grown cell monolayers were used in transport and cytokine production experiments between the 21st and 29th days.\nPrimary blood monocytes, moDCs, and NKT cells were seeded in 600 µL of complete RPMI-1640 with 10% Human AB serum (Capricorn Scientific, Ebsdorfergrund, Germany) and supplemented with 1X antibiotic–antimycotic solution into the wells of 24-well plates at a density of 3–7 × 10^5 cells/well 24 h before the experiment. Then, 24 h later, the medium in each well was replaced by the same medium with 1 µM of LL-37 for the sample wells or fresh medium alone for the control wells, and the permeable inserts with the Caco-2 monolayer with TEER > 400 Ω × cm^2, containing 400 μL of the complete medium in their apical chamber, were immediately placed into the appropriate wells. Also, inserts with the Caco-2 monolayer were placed in cell-free wells of 24-well plates in the same complete RPMI-1640 medium with or without 1 µM of LL-37 as controls. Cells were kept in a CO2-incubator (5% CO2, 37 °C) for another 24 h. Then, culture medium from each well was collected, centrifuged, and frozen at −70 °C.\nTo quantitatively evaluate a broad spectrum of analytes secreted by human cell cultures at the protein level, multiplex xMAP technology was used. The chosen panel (cat. #HCYTA-60K-PX48, Merck, Darmstadt, Germany) included 48 different magnetic beads with primary antibodies to the following cytokines, chemokines, and growth factors: CCL11 (Eotaxin-1), Flt-3 ligand, CX3CL1 (Fractalkine), sCD40L, FGF-2, EGF, GROα, GM-CSF, G-CSF, IL-1RA, IL-1α, IL-1β, IL-2, IL-3, IL-4, IL-5, IL-6, IL-7, CXCL8 (IL-8), IL-9, IL-10, IL-12p40, IL-12p70, IL-13, IL-15, IL-17A (CTLA8), IL-17E (IL-25), IL-17F, IL-18, IL-22, IL-27, IFNγ, IFNα2, CXCL10 (IP-10), CCL2 (MCP-1), CCL7 (MCP-3), CCL22 (MDC), CXCL9 (MIG), CCL3 (MIP-1α), CCL4 (MIP-1β), CCL5 (RANTES), M-CSF, PDGF-AA, PDGF-AB/BB, TNFα, TNFβ, TGFα, and VEGF-A. The assay was performed in accordance with the manufacturer’s instructions with overnight incubation of the samples with primary antibodies, and the plate was read on a MAGPIX System (Merck) using the xPONENT 4.2 software (Merck). The acquired fluorescence data were analyzed by the MILLIPLEX Analyst v5.1 software (Merck), which realized an advanced curve-fitting algorithm. Levels of the analytes in control and experimental samples were compared with an unpaired two-sample t-test using GraphPad Prism v.8.0.1 (GraphPad Software, Inc., San Diego, CA, USA). The p-values ≤ 0.05 were considered significant.", "note": "Several values for one entry are separate records, joined by “and”; a condition that tells them apart may be missing. Identical values can stand only once."}
{"substance": "LL-37: the only human cathelicidin, host defense antimicrobial peptide of 37 a.a. residues, produced by solid-phase peptide synthesis", "values": [{"measurement": "MIP-1b level", "setting": "control 0.3", "result": 3.42, "unit": "pg/mL"}, {"measurement": "IL-18 level", "setting": "control 0.98", "result": 0.33, "unit": "pg/mL"}, {"measurement": "IL-9 level", "setting": "control 1.09", "result": 1.7, "unit": "pg/mL"}, {"measurement": "IL-6 level", "setting": "control 1.75", "result": 9.84, "unit": "pg/mL"}, {"measurement": "MIP-1a level", "setting": "control 2.06", "result": 5.65, "unit": "pg/mL"}, {"measurement": "EGF level", "setting": "control 2.26", "result": "<1.60↓ pg/ml"}, {"measurement": "IP-10 level", "setting": "control 4.18", "result": 2.9, "unit": "pg/mL"}, {"measurement": "IL-4 level", "setting": "control 4.8", "result": 6.56, "unit": "pg/mL"}, {"measurement": "MCP-3 level", "setting": "control 7.84", "result": 8.72, "unit": "pg/mL"}, {"measurement": "sCD40L level", "setting": "control 12.72", "result": 23.6, "unit": "pg/mL"}, {"measurement": "TNFb level", "setting": "control 12.91, p = 0.02", "result": "18.9 pg/mL and 18.87 pg/mL"}, {"measurement": "GROa level", "setting": "control 18.09", "result": 27.89, "unit": "pg/mL"}, {"measurement": "PDGF-AB/BB level", "setting": "control 22.83", "result": 29.35, "unit": "pg/mL"}, {"measurement": "IL-13 level", "setting": "control 25.51", "result": 32.02, "unit": "pg/mL"}, {"measurement": "FGF-2 level", "setting": "control 25.68", "result": 16.73, "unit": "pg/mL"}, {"measurement": "IL-22 level", "setting": "control 27.2, p = 0.013", "result": "39 pg/mL and 39.52 pg/mL"}, {"measurement": "IL-8 level", "setting": "control 28.45, p = 0.16", "result": "86 pg/mL and 86.32 pg/mL"}, {"measurement": "IL-27 level", "setting": "control 41.5", "result": 35.81, "unit": "pg/mL"}, {"measurement": "MCP-1 level", "setting": "control 55.94", "result": 100.47, "unit": "pg/mL"}, {"measurement": "PDGF-AA level", "setting": "control 164.04", "result": 149.4, "unit": "pg/mL"}, {"measurement": "VEGFa level", "setting": "control 960.31", "result": 2088, "unit": "pg/mL"}, {"measurement": "IL-7 level", "setting": "control <0.30", "result": "<0.30↓ pg/ml"}, {"measurement": "MDC level", "setting": "control <0.31", "result": "<0.31↓ pg/ml"}, {"measurement": "IL-5 level", "setting": "control <0.35", "result": "<0.35↓ pg/ml"}, {"measurement": "IL-2 level", "setting": "control <0.36", "result": "<0.36↓ pg/ml"}, {"measurement": "FLT-3L level", "setting": "control <0.51", "result": "<0.51↓ pg/ml"}, {"measurement": "IL-3 level", "setting": "control <0.55", "result": "<0.55↓ pg/ml"}, {"measurement": "RANTES level", "setting": "control <0.64", "result": "<0.64↓ pg/ml"}, {"measurement": "TGF-a level", "setting": "control <0.68", "result": "<0.68↓ pg/ml"}, {"measurement": "IL-17A level", "setting": "control <0.70", "result": "<0.70↓ pg/ml"}, {"measurement": "IFNg level", "setting": "control <0.73", "result": "<0.73↓ pg/ml"}, {"measurement": "IL-1b level", "setting": "control <0.74", "result": "<0.74↓ pg/ml"}, {"measurement": "GM-CSF level", "setting": "control <0.76", "result": "<0.76↓ pg/ml"}, {"measurement": "IL-1RA level", "setting": "control <0.93", "result": "<0.93↓ pg/ml"}, {"measurement": "IL-1a level", "setting": "control <1.30", "result": "<1.30↓ pg/ml"}, {"measurement": "IL-10 level", "setting": "control <1.35", "result": "<1.35↓ pg/ml"}, {"measurement": "IL-15 level", "setting": "control <1.54", "result": "<1.54↓ pg/ml"}, {"measurement": "IL-12 (p70) level", "setting": "control <1.71", "result": "<1.71↓ pg/ml"}, {"measurement": "G-CSF level", "setting": "control <2.32", "result": "<2.32↓ pg/ml"}, {"measurement": "Eotaxin level", "setting": "control <2.91", "result": "<2.91↓ pg/ml"}, {"measurement": "IL-12 (p40) level", "setting": "control <3.33", "result": "<3.33↓ pg/ml"}, {"measurement": "MIG level", "setting": "control <3.38", "result": "<3.38↓ pg/ml"}, {"measurement": "IFNa2 level", "setting": "control <3.88", "result": "<3.88↓ pg/ml"}, {"measurement": "TNFa level", "setting": "control <3.88", "result": "<3.88↓ pg/ml"}, {"measurement": "IL-17F level", "setting": "control <12.19", "result": "<12.19↓ pg/ml"}, {"measurement": "Fractalkine level", "setting": "control <18.09", "result": "<18.09↓ pg/ml"}, {"measurement": "IL-17E/IL-25 level", "setting": "control <19.43", "result": "<19.43↓ pg/ml"}, {"measurement": "M-GSF level", "setting": "control <24.21", "result": "<24.21↓ pg/ml"}]}
